The values below come from patent publication US9504669B2, “Spliceostatin analogs and methods for their preparation” (PFIZER INC., priority 2012, dated 2016).

The test system of assay [1] is N87 (gastric cancer) cells. Nature of the assay: In vitro cell assay (MTS cell viability), N87. It is filed as cell-based. Particulars: free compounds (natural products and synthetic analogs), cell viability 96 hours after treatment. As to the method:
(§1) Target expressing (BT474 (breast cancer), N87 (gastric cancer), HCC1954 (breast cancer), MDA-MB-361-DYT2 (breast cancer)) or non-expressing (MDA-MB-468) cells were seeded in 96-well cell culture plates for 24 hours before treatment. Cells were treated with 3-fold serially diluted antibody-drug conjugates or free compounds (i.e., no antibody conjugated to the drug) in duplicate at 10 concentrations. Cell viability was determined by CellTiter 96® AQueous One Solution Cell Proliferation MTS Assay (Promega, Madison Wis.) 96 hours after treatment. Relative cell viability was determined as percentage of untreated control. IC50 values were calculated using a four parameter logistic model #203 with XLfit v4.2 (IDBS, Guildford, Surry, UK). The potency ranged upward from 0.0002 nm. Similar procedures and techniques were employed.

The subject of assay [2] is MDA-MB-361-DYT2 (breast cancer) cells. Nature of the assay: In vitro cell assay (MTS cell viability), MDA-MB-361-DYT2. Particulars: free compounds (natural products and synthetic analogs), cell viability 96 hours after treatment. It is filed as cell-based. As to the method: as §1

`COC(=O)C[C@@H]1C[C@@]2(CO2)C[C@@H](/C=C/C(C)=C/C[C@@H]2O[C@H](C)[C@H](NC(=O)/C=C\[C@H](C)OC(=O)CCCSC)C[C@@H]2C)O1` [#B149, (2S,3Z)-5-{[(2R,3R,5S,6S)-6-{(2E,4E)-5-[(3S,5S,7S)-7-(2-methoxy-2-oxoethyl)-1,6-dioxaspiro[2.5]oct-5-yl]-3-methylpenta-2,4-dien-1-yl}-2,5-dimethyltetrahydro-2H-pyran-3-yl]amino}-5-oxopent-3-en-2-yl 4-(methylsulfanyl)butanoate]: the IC50 in assay [1] (96 h) and in assay [2] (96 h) was > 100 nM throughout.
On to `COC(=O)C[C@@H]1C[C@@]2(CO2)[C@H](OC)[C@@H](/C=C/C(C)=C/C[C@@H]2O[C@H](C)[C@H](NC(=O)/C=C\[C@H](C)O)C[C@@H]2C)O1` [#B264, methyl [(3R,5S,7R,8R)-7-{(1E,3E)-5-[(2S,3S,5R,6R)-5-{[(2Z,4S)-4-hydroxypent-2-enoyl]amino}-3,6-dimethyltetrahydro-2H-pyran-2-yl]-3-methylpenta-1,3-dien-1-yl}-8-methoxy-1,6-dioxaspiro[2.5]oct-5-yl]acetate], for which the IC50 in assay [1] (96 h) and in assay [2] (96 h) was > 100 nM each time.
With `COC(=O)C[C@@H]1C[C@@]2(CO2)[C@H](OC)[C@@H](/C=C/C(C)=C/C[C@@H]2O[C@H](C)[C@H](NC(=O)/C=C\[C@H](C)OC(C)=O)C[C@@H]2C)O1` [#B265, methyl [(3R,5S,7R,8R)-7-{(1E,3E)-5-[(2S,3S,5R,6R)-5-{[(2Z,4S)-4-(acetyloxy)pent-2-enoyl]amino}-3,6-dimethyltetrahydro-2H-pyran-2-yl]-3-methylpenta-1,3-dien-1-yl}-8-methoxy-1,6-dioxaspiro[2.5]oct-5-yl]acetate], the 50% inhibitory concentration (IC50) (commonly the concentration that gives 50% inhibition) was determined as 10.2 nM in assay [1] (96 h) and 8.67 nM in assay [2] (96 h).
For `CC(/C=C/[C@@H]1C[C@]2(CO2)C[C@@H](CC(N)=O)O1)=C\C[C@@H]1O[C@H](C)[C@H](NC(=O)/C=C/C(C)N)C[C@@H]1C` (stereo partly drawn) [#B273, (2E)-4-amino-N-[(2R,3R,5S,6S)-6-{(2E,4E)-5-[(3S,5S,7S)-7-(2-amino-2-oxoethyl)-1,6-dioxaspiro[2.5]oct-5-yl]-3-methylpenta-2,4-dien-1-yl}-2,5-dimethyltetrahydro-2H-pyran-3-yl]pent-2-enamide], the IC50 was 600 nM in assay [1] and > 1000 nM in assay [2].
For `CC(=O)O[C@@H](C)/C=C\C(=O)N[C@@H]1C[C@H](C)[C@H](C/C=C(C)/C=C/[C@H]2O[C@H](CNC(N)=O)C[C@@]3(CO3)[C@@H]2O)O[C@@H]1C` [#B241, (2S,3Z)-5-({(2R,3R,5S,6S)-6-[(2E,4E)-5-{(3R,4R,5R,7S)-7-[(carbamoylamino)methyl]-4-hydroxy-1,6-dioxaspiro[2.5]oct-5-yl}-3-methylpenta-2,4-dien-1-yl]-2,5-dimethyltetrahydro-2H-pyran-3-yl}amino)-5-oxopent-3-en-2-yl acetate], the IC50 in assay [1] (96 h) was 21.3 nM; in assay [2] (96 h), 43.6 nM.
Regarding `CC(=O)O[C@@H](C)/C=C\C(=O)N[C@@H]1C[C@H](C)[C@H](C/C=C(C)/C=C/[C@H]2O[C@H](CC(=O)N(C)N)C[C@@]3(CO3)[C@@H]2O)O[C@@H]1C` [#B144, (2S,3Z)-5-({(2R,3R,5S,6S)-6-[(2E,4E)-5-{(3R,4R,5R,7S)-4-hydroxy-7-[2-(1-methylhydrazinyl)-2-oxoethyl]-1,6-dioxaspiro[2.5]oct-5-yl}-3-methylpenta-2,4-dien-1-yl]-2,5-dimethyltetrahydro-2H-pyran-3-yl}amino)-5-oxopent-3-en-2-yl acetate], the IC50 worked out at 0.982 nM in assay [1] (96 h) and 6.1 nM in assay [2] (96 h).
Turning to `CCCNC(=O)C[C@]1(O)C[C@@]2(CO2)[C@H](O)[C@@H](/C=C/C(C)=C/C[C@@H]2O[C@H](C)[C@H](NC(=O)/C=C\[C@H](C)OC(C)=O)C[C@@H]2C)O1` [#B275, (2S,3Z)-5-({(2R,3R,5S,6S)-6-[(2E,4E)-5-{(3R,4R,5R,7S)-4,7-dihydroxy-7-[2-oxo-2-(propylamino)ethyl]-1,6-dioxaspiro[2.5]oct-5-yl}-3-methylpenta-2,4-dien-1-yl]-2,5-dimethyltetrahydro-2H-pyran-3-yl}amino)-5-oxopent-3-en-2-yl acetate], the figures for the IC50 in assay [1] (96 h) and in assay [2] (96 h) were 5.33 nM and 22.2 nM, respectively.
Consider `CC(=O)O[C@@H](C)/C=C\C(=O)N[C@@H]1C[C@H](C)[C@H](C/C=C(C)/C=C/[C@H]2O[C@H](CC(=O)NN(C)C)C[C@@]3(CO3)[C@@H]2O)O[C@@H]1C` [#B177, (2S,3Z)-5-({(2R,3R,5S,6S)-6-[(2E,4E)-5-{(3R,4R,5R,7S)-7-[2-(2,2-dimethylhydrazinyl)-2-oxoethyl]-4-hydroxy-1,6-dioxaspiro[2.5]oct-5-yl}-3-methylpenta-2,4-dien-1-yl]-2,5-dimethyltetrahydro-2H-pyran-3-yl}amino)-5-oxopent-3-en-2-yl acetate], for which the half-maximal inhibitory concentration (IC50) in assay [1] (96 h) is 1.61 nM; in assay [2] (96 h), 5.65 nM.
In the case of `CC(=O)O[C@@H](C)/C=C\C(=O)N[C@@H]1C[C@H](C)[C@H](C/C=C(C)/C=C/[C@H]2O[C@H](CC(=O)NCc3ccc(C(N)=O)cc3)C[C@@]3(CO3)[C@@H]2O)O[C@@H]1C` [#B266, (2S,3Z)-5-{[(2R,3R,5S,6S)-6-{(2E,4E)-5-[(3R,4R,5R,7S)-7-{2-[(4-carbamoylbenzyl)amino]-2-oxoethyl}-4-hydroxy-1,6-dioxaspiro[2.5]oct-5-yl]-3-methylpenta-2,4-dien-1-yl}-2,5-dimethyltetrahydro-2H-pyran-3-yl]amino}-5-oxopent-3-en-2-yl acetate], the IC50 is 28.4 nM in assay [1] (96 h) and > 100 nM in assay [2] (96 h).
`CC(=O)O[C@@H](C)/C=C\C(=O)N[C@@H]1C[C@H](C)[C@H](C/C=C(C)/C=C/[C@H]2O[C@H](CC(=O)N3CCCCN3)C[C@@]3(CO3)[C@@H]2O)O[C@@H]1C` [#B179, (2S,3Z)-5-({(2R,3R,5S,6S)-6-[(2E,4E)-5-{(3R,4R,5R,7S)-4-hydroxy-7-[2-oxo-2-(tetrahydropyridazin-1(2H)-yl)ethyl]-1,6-dioxaspiro[2.5]oct-5-yl}-3-methylpenta-2,4-dien-1-yl]-2,5-dimethyltetrahydro-2H-pyran-3-yl}amino)-5-oxopent-3-en-2-yl acetate]: the values for the IC50 in assay [1] (96 h) and in assay [2] (96 h) were 0.299 nM and 1.29 nM, respectively.
In the case of `CCCNC(=O)C[C@@H]1C[C@@](O)(CCl)C[C@@H](/C=C/C(C)=C/C[C@@H]2O[C@H](C)[C@H](NC(=O)/C=C\[C@H](C)OC(C)=O)C[C@@H]2C)O1` [#B285, (2S,3Z)-5-({(2R,3R,5S,6S)-6-[(2E,4E)-5-{(2S,4S,6S)-4-(chloromethyl)-4-hydroxy-6-[2-oxo-2-(propylamino)ethyl]tetrahydro-2H-pyran-2-yl}-3-methylpenta-2,4-dien-1-yl]-2,5-dimethyltetrahydro-2H-pyran-3-yl}amino)-5-oxopent-3-en-2-yl acetate], the IC50 in assay [1] (96 h) amounted to 7.61 nM; in assay [2] (96 h), 11.7 nM.
On to `COC(=O)C[C@@H]1C[C@@]2(CO2)[C@H](O)[C@@H](/C=C/C(C)=C/C[C@@H]2O[C@H](C)[C@H](NC(=O)/C=C\[C@H](C)OC)C[C@@H]2C)O1` [#B229, methyl [(3R,5S,7R,8R)-8-hydroxy-7-{(1E,3E)-5-[(2S,3S,5R,6R)-5-{[(2Z,4S)-4-methoxypent-2-enoyl]amino}-3,6-dimethyltetrahydro-2H-pyran-2-yl]-3-methylpenta-1,3-dien-1-yl}-1,6-dioxaspiro[2.5]oct-5-yl]acetate], for which the IC50 in assay [1] (96 h) came to 3.6 nM; in assay [2] (96 h), 9.14 nM.
Consider `CCCNC(=O)NC[C@@H]1C[C@@]2(CO2)[C@H](O)[C@@H](/C=C/C(C)=C/C[C@@H]2O[C@H](C)[C@H](NC(=O)/C=C\[C@H](C)OC(C)=O)C[C@@H]2C)O1` [#B242, (2S,3Z)-5-{[(2R,3R,5S,6S)-6-{(2E,4E)-5-[(3R,4R,5R,7S)-4-hydroxy-7-{[(propylcarbamoyl)amino]methyl}-1,6-dioxaspiro[2.5]oct-5-yl]-3-methylpenta-2,4-dien-1-yl}-2,5-dimethyltetrahydro-2H-pyran-3-yl]amino}-5-oxopent-3-en-2-yl acetate], for which the values for the concentration for half-maximal inhibition (IC50) in assay [1] (96 h) and in assay [2] (96 h) were 0.57 nM and 3.76 nM, respectively.
As to `CC(/C=C/[C@H]1O[C@H](CC(=O)NN)C[C@@]2(CO2)[C@@H]1O)=C\C[C@@H]1O[C@H](C)[C@H](NC(=O)/C=C\[C@H](C)O)C[C@@H]1C` [#B209, (2Z,4S)—N-[(2R,3R,5S,6S)-6-{(2E,4E)-5-[(3R,4R,5R,7S)-7-(2-hydrazinyl-2-oxoethyl)-4-hydroxy-1,6-dioxaspiro[2.5]oct-5-yl]-3-methylpenta-2,4-dien-1-yl}-2,5-dimethyltetrahydro-2H-pyran-3-yl]-4-hydroxypent-2-enamide], the IC50 was 60.6 nM in assay [1] (96 h) and > 100 nM in assay [2] (96 h).
The matching figures for `CCCNC(=O)C[C@@H]1C[C@@](O)(CCl)[C@H](O)[C@@H](/C=C/C(C)=C/C[C@@H]2O[C@H](C)[C@H](NC(=O)/C=C\[C@H](C)OC(C)=O)C[C@@H]2C)O1` [#B286, (1S,5R)-5-{(1E,3E)-5-[(2S,3S,5R,6R)-5-{[(2Z,4S)-4-(acetyloxy)pent-2-enoyl]amino}-3,6-dimethyltetrahydro-2H-pyran-2-yl]-3-methylpenta-1,3-dien-1-yl}-1,5-anhydro-3-C-(chloromethyl)-2-deoxy-1-[2-oxo-2-(propylamino)ethyl]-D-erythro-pentitol]: 0.387 nM and 1.11 nM.
Turning to `COC(=O)C[C@@H]1C[C@@](O)(CCl)[C@H](O)[C@@H](/C=C/C(C)=C/C[C@@H]2O[C@H](C)[C@H](NC(=O)/C=C\[C@H](C)OC(C)=O)C[C@@H]2C)O1` [#B284, (1S,5R)-5-{(1E,3E)-5-[(2S,3S,5R,6R)-5-{[(2Z,4S)-4-(acetyloxy)pent-2-enoyl]amino}-3,6-dimethyltetrahydro-2H-pyran-2-yl]-3-methylpenta-1,3-dien-1-yl}-1,5-anhydro-3-C-(chloromethyl)-2-deoxy-1-(2-methoxy-2-oxoethyl)-D-erythro-pentitol], the half-maximal inhibitory concentration (IC50) in assay [1] (96 h) stood at 1.3 nM; in assay [2] (96 h), 2.03 nM.
